Assay results taken from US9120775B2, “Viral polymerase inhibitors” (Biota Scientific Management Pty Ltd, priority 2012, dated 2015).
Values after ≈ are worked out from the molar mass of the structure shown. Read-outs that look alike come from different tables or passages of the source.

Assays:
1b (BK) NS5BΔ21 = biological target: T1, 1b (BK) NS5BΔ21 (Hepatitis C virus genotype 1b, UniProt P26663); assay: HCV polymerase inhibition assay; assay type: biochemical
T1 construct: 100 nM 1b (BK) NS5BΔ21
Protocol: HCV polymerase reactions were carried out using a modified method of Howe et al., Antimicrobial Agents and Chemotherapy 2004 48(12): 4813-4821. Reactions contained a final concentration of, 0.5% DMSO, 100 nM 1b (BK) NS5BΔ21, 20 mM Tris-HCl pH 7.5, 5 mM MgCl2, 5 mM MnCl2, 3 mM DTT, 0.05% BSA, 0.2 U/μL RNasin, 10 μg/mL Poly(rC) template, GTP (at Km) and 0.05 μCi/μL ^33P-GTP in a total reaction volume of 50 μL. Compounds were tested in a three fold dilution series, for example starting from 50 μM. Reactions were initiated with the addition of GTP and terminated after […] with 50 μL ice cold 0.2 M EDTA. Terminated reactions were transferred to DEAE 96-well filter plates, unincorporated nucleotides washed from the filters and 50 μL scintillation fluid added prior to reading on a scintillation counter. The compound concentration that reduced ^33P-GTP incorporation by 50% (IC50) was calculated using non-linear regression.

[1] = test system: genotype 1b (Con 1) subgenomic replicon cell line; assay: HCV replicon assay, genotype 1b, Renilla luciferase reporter; assay type: cell-based; settings: Hepatitis C virus; 72 hours incubation, Renilla luciferase activity
Protocol: A genotype 1b (Con 1) subgenomic replicon cell line based on Blight et al., Science 2000 290: 1972-1974, modified to express a Renilla luciferase reporter gene was used to assess antiviral activity of test compounds. Cell cultures were maintained in a sub-confluent state in DMEM with glutamine, 10% heat-inactivated foetal bovine serum (FBS) and G418 (Geneticin®).
For assay, cells were seeded at a density of 7000 cells/well into 96 well tissue culture trays in culture media lacking G418. Compounds were tested in a three fold dilution series, for example starting from 50 uM. After 72 hours incubation at 37° C. and 5% CO2, Renilla luciferase activity was quantified via the Promega Renilla Luciferase or Renilla-Glo™ Luciferase Assay Systems (Promega corporation. The same method was employed for replicon assays using subgenomic genotype 1a (H77) and 2a (JFH-1) replicon cell lines with a seeding cell density of 5000 cells/well for the 2a cell lines.
The compound concentration that reduced luciferase activity by 50% (EC50) was calculated using non-linear regression.

[2] = Aqueous solubility (laser nephelometry); assay type: physicochemical; settings: for solubility at 30 min: aqueous assay buffer pH 6.5 with 1% DMSO, aqueous buffer, kinetic from dmso stock, pH 6.5, 1% DMSO, 30 minute incubation at 25° C.
Protocol: Test compounds prepared in DMSO were screened in duplicate over a range of concentrations (1.6-100 ug/mL) in different aqueous media (for example a pH6.5 buffers which are relevant to the stomach and upper regions of the small intestine and therefore important when predicting the amount of drug likely to be in solution following oral administration). Test compounds were serially diluted in 100% DMSO ranging from 10-0.16 mg/mL. These titrated DMSO stocks were then further diluted 1:100 with assay buffer and added to test plates (UV Star Griener 384 well plates), maintaining the DMSO concentration at 1%.

[3] = read-out: solubility ranges at pH 6.5

T1 sequence (P26663 2420-2989, stated change not applied): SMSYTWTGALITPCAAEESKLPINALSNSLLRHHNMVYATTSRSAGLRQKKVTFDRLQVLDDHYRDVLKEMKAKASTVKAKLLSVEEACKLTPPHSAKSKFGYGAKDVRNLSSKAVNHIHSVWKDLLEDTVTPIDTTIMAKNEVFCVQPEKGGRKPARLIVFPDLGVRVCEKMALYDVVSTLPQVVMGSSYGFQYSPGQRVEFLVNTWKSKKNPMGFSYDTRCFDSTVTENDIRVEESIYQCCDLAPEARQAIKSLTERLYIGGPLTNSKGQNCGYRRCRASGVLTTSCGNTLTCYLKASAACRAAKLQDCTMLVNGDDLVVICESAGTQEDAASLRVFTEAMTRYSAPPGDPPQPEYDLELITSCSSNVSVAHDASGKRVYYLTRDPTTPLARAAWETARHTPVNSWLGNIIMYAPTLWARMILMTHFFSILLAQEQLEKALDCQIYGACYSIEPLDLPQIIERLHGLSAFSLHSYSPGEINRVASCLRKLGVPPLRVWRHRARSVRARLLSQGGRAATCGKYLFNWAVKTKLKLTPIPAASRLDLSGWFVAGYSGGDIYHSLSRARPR

SMILES	IC50 (1b (BK) NS5BΔ21) [nM]	EC50 [1] [nM]	solubility at 30 min [2, 3] [µg/mL]	solubility at 30 min ([2]; read-out: Solubility at pH 6.5) [µg/mL]	solubility at pH 6.5 (in words) ([2]; pH 6.5, good solubility when the value is >25 ug/mL)
CNC(=O)c1c2cc(C3CC3)c(N(CC[C@@H]3CO[C@H]3C)S(C)(=O)=O)cc2nn1-c1ccc(Cl)cc1 (single isomer, unassigned) [Compound 32]	100 to 490	< 100	25 to 50 (≈ 48.4 to 96.7 µM)	–	–
CNC(=O)c1c2cc(C3CC3)c(N(CC[C@H]3CO[C@@H]3C)S(C)(=O)=O)cc2nn1-c1ccc(Cl)cc1 (single isomer, unassigned) [Compound 33]	100 to 490	< 100	50 to 100 (≈ 96.7 to 193 µM)	–	–
CNC(=O)c1c2cc(C3CC3)c(N(CCC3COC3)S(C)(=O)=O)cc2nn1-c1ccc(C)cc1 [Compound 3, 5-Cyclopropyl-N-methyl-2-(4-methylphenyl)-6-{(methylsulfonyl)[2-(oxetan-3-yl)ethyl]amino}-2H-indazole-3-carboxamide]	< 100	< 100	12.5 to 25 (≈ 25.9 to 51.8 µM)	–	–
CNC(=O)c1c2cc(C3CC3)c(N(CCC3CN(C(C)=O)C3)S(C)(=O)=O)cc2nn1-c1ccc(Cl)cc1 [Compound 8, 6-{[2-(1-acetylazetidin-3-yl)ethyl](methylsulfonyl)amino}-2-(4-chlorophenyl)-5-cyclopropyl-N-methyl-2H-indazole-3-carboxamide]	100 to 490	< 100	25 to 50 (≈ 45.9 to 91.9 µM)	–	–
CNC(=O)c1c2cc(C3CC3)c(N(CC3COC3)S(C)(=O)=O)cc2nn1-c1ccc(Cl)cc1 [Compound 14, 2-(4-chlorophenyl)-5-cyclopropyl-N-methyl-6-[(methylsulfonyl)(oxetan-3-ylmethyl)amino]-2H-indazole-3-carboxamide]	100 to 490	< 100	–	25 to 50 (≈ 51.1 to 102 µM)	good solubility
CNC(=O)c1c2cc(C3CC3)c(N(CCC3OCC3C)S(C)(=O)=O)cc2nn1-c1ccc(Cl)cc1 (stereo not drawn) [Compound 17, 3,5-anhydro-1-{[2-(4-chlorophenyl)-5-cyclopropyl-3-(methylcarbamoyl)-2H-indazol-6-yl](methylsulfonyl)amino}-1,2,4-trideoxy-4-methylpentitol]	100 to 490	100 to 490	50 to 100 (≈ 96.7 to 193 µM)	–	–
CNC(=O)c1c2cc(C3CC3)c(N(CC(F)C3COC3)S(C)(=O)=O)cc2nn1-c1ccc(Cl)cc1 (stereo not drawn) [Compound 18, 2-(4-chlorophenyl)-5-cyclopropyl-6-{[2-fluoro-2-(oxetan-3-yl)ethyl](methylsulfonyl)amino}-N-methyl-2H-indazole-3-carboxamide]	< 100	100 to 490	50 to 100 (≈ 96 to 192 µM)	–	–
CNC(=O)c1c2cc(C3CC3)c(N(CCC3(F)COC3)S(C)(=O)=O)cc2nn1-c1ccc(Cl)cc1 [Compound 26, 2-(4-chlorophenyl)-5-cyclopropyl-6-[2-(3-fluorooxetan-3-yl)ethyl-methylsulfonyl-amino]-N-methyl-indazole-3-carboxamide]	< 100	< 100	25 to 50 (≈ 48 to 96 µM)	–	–
CNC(=O)c1c2cc(C3CC3)c(N(CCC3(OC)CNC3)S(C)(=O)=O)cc2nn1-c1ccc(Cl)cc1 [Compound 29, 2-(4-chlorophenyl)-5-cyclopropyl-6-[2-(3-methoxyazetidin-3-yl)ethyl-methylsulfonyl-amino]-N-methyl-indazole-3-carboxamide]	1000 to 10000	1000 to 10000	12.5 to 25 (≈ 23.5 to 47 µM)	–	–
CNC(=O)c1c2cc(C3CC3)c(N(CCC3(OC)CN(C(C)=O)C3)S(C)(=O)=O)cc2nn1-c1ccc(Cl)cc1 [Compound 30, 6-[2-(1-acetyl-3-methoxy-azetidin-3-yl)ethyl-methylsulfonyl-amino]-2-(4-chlorophenyl)-5-cyclopropyl-N-methyl-indazole-3-carboxamide]	500 to 990	500 to 990	50 to 100 (≈ 87.1 to 174 µM)	–	–
CNC(=O)c1c2cc(C3CC3)c(N(CCC3(OC)COC3)S(C)(=O)=O)cc2nn1-c1ccc(Cl)cc1 [Compound 36, 2-(4-chlorophenyl)-5-cyclopropyl-6-[2-(3-methoxyoxetan-3-yl)ethyl-methylsulfonyl-amino]-N-methyl-indazole-3-carboxamide]	–	100 to 490	50 to 100 (≈ 93.8 to 188 µM)	–	–
